Like-named read-outs stand apart in the source and are kept apart here.
Target: T1, Cbl-b (truncated variant, UniProt number Q13191) (Homo sapiens, UniProt Q13191)
T1 construct: made in house
Test: Cbl-b displacement assay (Cbl-b inhibition assay, fluorophore-labeled probe)
Type: binding
Description: As described in Biological Example 1A, a Cbl-b activity assay (Cbl-b inhibition assay) used to measure the IC50 values for Cbl-b inhibition uses a mixture comprising candidate compound, Cbl-b (truncated, with an Avitag, and biotinylated), a fluorescently-labeled E2 enzyme UbcH5B labelled with ubiquitin conjugated to BODIPY-fluorescein (UbcH5B-Ub), streptavidin-terbium, and assay buffer. In one embodiment, the Cbl-b activity assay (Cbl-b inhibition assay) used to measure IC50 for inhibition of Cbl-b uses the conditions described in Biological Example 1A with 12 nM Cbl-b. […] In another embodiment, the Cbl-b activity assay (Cbl-b inhibition assay) used to measure IC50 for inhibition of Cbl-b uses the conditions described in Biological Example 1B, with candidate compound, 0.125 nM Cbl-b (truncated, with an avitag, and biotinylated), fluorescently labelled inhibitor probe, and assay buffer. Displacement of the inhibitor probe indicates Cbl-b activity.
Candidate compounds were evaluated for their ability to bind and inhibit Cbl-b, an E3 ubiquitin-protein ligase, as evidenced by their ability to displace a fluorophore-labeled probe (Example 168) bound to Cbl-b.
The ability of candidate compounds to displace a known inhibitor and thereby inhibit Cbl-b activity was measured by monitoring the interaction of Cbl-b with a fluorophore-labeled probe in the presence of the candidate compound. A truncated variant of Cbl-b (UniProt number Q13191; SEQ ID NO:1) containing an Avitag at its N-terminus was co-expressed with BirA biotin ligase and purified using a standard protocol (see Dou et al., Nature Structural and Molecular Biology, 8: 982-987, 2013; Avidity LLC).
Fluorescently-labeled inhibitor probe was synthesized and tagged with BODIPY FL (Example 168). Cbl-b displacement assays were performed in a 384-well plate at room temperature in a 10 μL reaction volume by pre-incubating 0.125 nM Cbl-b (final concentration) in an assay buffer containing 20 mM HEPES pH 7.5, 150 mM NaCl, 0.01% Triton X-100, 0.01% BSA, and 0.5 mM TCEP in the presence of a candidate compound in 1% DMSO (final concentration) for one hour. After incubation in the presence of the candidate compound, the plate was incubated for an additional one hour in the presence of an approximate EC40 binding saturation consisting of 150 nM fluorescently-labeled inhibitor probe and 2 nM Streptavidin-Terbium (Cisbio) (final concentrations). Following the one hour incubation, the plates were read for TR-FRET signal at 520/620 nm using an Envision plate reader (Perkin Elmer).
Compounds were ranked into bins A through D as follows for IC50: A indicates <0.1 μM, B indicates 0.1 μM≤IC50<1 μM, C indicates 1 μM≤IC50<5 μM, and D indicates 5 μM≤IC50.

[1] = Biological Example 1B, read-out: IC50 values in the Cbl-b inhibition assay of Biological Example 1B
[2] = displacement assay, 0.125 nM Cbl-b, 150 nM fluorescently-labeled inhibitor probe, read-out: Cbl-b activity IC50

T1 sequence (Q13191 36-427): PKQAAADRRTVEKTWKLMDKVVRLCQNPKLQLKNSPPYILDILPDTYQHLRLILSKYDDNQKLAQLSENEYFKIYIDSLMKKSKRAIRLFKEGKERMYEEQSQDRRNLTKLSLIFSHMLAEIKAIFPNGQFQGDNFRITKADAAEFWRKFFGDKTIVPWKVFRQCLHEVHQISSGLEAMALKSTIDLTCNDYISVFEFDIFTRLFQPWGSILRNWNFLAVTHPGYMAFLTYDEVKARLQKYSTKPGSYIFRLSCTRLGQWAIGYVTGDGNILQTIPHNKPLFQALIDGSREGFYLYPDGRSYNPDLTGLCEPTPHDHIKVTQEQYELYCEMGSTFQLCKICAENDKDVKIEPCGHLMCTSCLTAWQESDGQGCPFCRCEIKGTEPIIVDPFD

With `Cn1cnnc1[C@@H](c1cccc(-c2n[nH]c3c(CN4CC[C@H](F)C4)cc(C(F)(F)F)nc23)c1)C1CCC1` [Example 115, 3-(3-((R)-cyclobutyl(4-methyl-4H-1,2,4-triazol-3-yl)methyl)phenyl)-7-(((S)-3-fluoropyrrolidin-1-yl)methyl)-5-(trifluoromethyl)-1H-pyrazolo[4,3-b]pyridine] the IC50 [1] was < 100 nM and the IC50 [2] was < 100 nM.

For `Cn1cnnc1CC1(c2cccc(-c3n[nH]c4c(CN5CC[C@H](F)C5)cc(C(F)(F)F)nc34)c2)COC1` [Example 114, (S)-7-((3-fluoropyrrolidin-1-yl)methyl)-3-(3-(3-((4-methyl-4H-1,2,4-triazol-3-yl)methyl)oxetan-3-yl)phenyl)-5-(trifluoromethyl)-1H-pyrazolo[4,3-b]pyridine], the IC50 [1] was < 100 nM and the IC50 [2] was < 100 nM.

Source: patent US12653809B2, “Urea, amide, and substituted heteroaryl compounds for CBL-B inhibition” (Nurix Therapeutics, Inc., priority 2019, dated 2026)
